This is an account of results in patent US10828315B2 (Madrigal Pharmaceuticals, Inc., priority 2013, dated 2020).

Structures can show the parent of a compound that is named as a salt. Bounds are passed on as bounds.

Tested on in one data set: not listed separately
Kind of data set: Mouse plasma stability protocol, up to 1 h (Examples 16-18). Particulars: % Remaining of parent after 1 h incubation in mouse plasma at 37° C. (10 μM).
On to `CCNC(=O)c1nnc(-c2cc(C(C)C)c(O)cc2O)n1-c1ccc(C(=O)N2CCN(c3cc(C)c(OC(=O)Nc4cccc5c4C(=O)N(C4CCC(=O)NC4=O)C5=O)c(C)c3)CC2)cc1` (centres unmarked) [SDC-TRAP-0400, 4-(4-(4-(3-(2,4-dihydroxy-5-isopropylphenyl)-5-(ethylcarbamoyl)-4H-1,2,4-triazol-4-yl)benzoyl)piperazin-1-yl)-2,6-dimethylphenyl (2-(2,6-dioxopiperidin-3-yl)-1,3-dioxoisoindolin-4-yl)carbamate], for which the “% Remaining (1 h)” value was found to be 70.4%.

A further data set relates to HER2. Nature of the data set: HER2 degradation assay with BT-474 cell line (Example 12, FACS). It is filed as cell-based, human.
Conditions: not given
From the text:
HER2 has emerged as a key target for anticancer drugs due to its intrinsic involvement in the phosphatidylinositol-3-kinase-Akt/protein kinase B (PI3K-Akt) and the mitogen-activated protein kinase (MAPK) pathways, both of which suppress apoptosis and promote tumor cell survival, gene transcription, angiogenesis, cellular proliferation, migration, mitosis, and differentiation. The degradation of HER2 is a measure of efficacy of anticancer therapeutics that target Hsp90. Accordingly, the SDC-TRAP molecules of the invention that comprise a binding moiety that binds Hsp90 were tested in the following HER2 degradation assay.
BT-474 cells (human breast cancer cell line ATCC HTB-20) were obtained from ATCC and seeded into 12-well tissue culture plates at 0.2×10^6/1.8 mL/well. […] Each test compound was titrated in 4-fold dilutions from 5 μM to 78 nM with DMSO and 200 μL of the titration was added to each well of the cell plate. The DMSO final concentration was 0.2%. Cells were incubated overnight at 37° C. in 5% CO2.
Media was decanted from the plate, cells were washed 1× in PBS. 400 μL trypsin (EDTA) per well was added, and the cells were incubated for 2 to 3 minutes. Cells were collected into FACS tubes containing 1 ml culture medium to neutralize the trypsin and were centrifuged for 5 minutes at 1200 rpm. Supernatant was decanted and the cells were resuspended in 5 μL FITC (anti HER2/nu)/200 μL staining buffer (1×PBS+1% FBS+0.05% Sodium Azide)/tube. Controls were 5 μL IgG isotype control and staining buffer only. Tubes were incubated for 30 minutes in the dark at room temperature. 1 mL staining buffer was added to each tube and the tubes were centrifuged for 6 minutes at 1200 rpm. The supernatant was decanted and 300 μL staining buffer was added to each tube, which was store at 4° C. fpr FACS (cytometer) analysis. The cytometer readout was normalized and the potency of each compound is evaluated with IC50 calculated with XLfit™ software.
For orientation: IC50 means the point on the concentration scale where inhibition reaches its midpoint. Read a high IC50 as weaker potency. As for `CCNC(=O)c1nnc(-c2cc(C(C)C)c(O)cc2O)n1-c1ccc(C(=O)N2CCN(c3ccc(OC(=O)Nc4cccc5c4CN(C4CCC(=O)NC4=O)C5=O)cc3)CC2)cc1` (centres unmarked), the IC50 turned out to be 0.254 µM.

`CCc1c2c(nc3ccc(OC(=O)N4CCC(Oc5ccc(-n6c(O)nnc6-c6cc(C(C)C)c(O)cc6O)cc5)CC4)cc13)-c1cc3c(c(=O)n1C2)COC(=O)[C@]3(O)CC` [SDC-TRAP-0011, (S)-4,11-diethyl-4-hydroxy-3,14-dioxo-3,4,12,14-tetrahydro-1H-pyrano[3′,4′:6,7]indolizino[1,2-b]quinolin-9-yl 4-(4-(3-(2,4-dihydroxy-5-isopropylphenyl)-5-hydroxy-4H-1,2,4-triazol-4-yl)phenoxy) piperidine-1-carboxylate]: the IC50 is over 5 µM.

Take `CCc1c2c(nc3ccc(O)cc13)-c1cc3c(c(=O)n1C2)COC(=O)[C@@]3(CC)OC(=O)N1CCC(Oc2ccc(-n3c(O)nnc3-c3cc(C(C)C)c(O)cc3O)cc2)CC1` [SDC-TRAP-0012, (S)-4,11-diethyl-9-hydroxy-3,14-dioxo-3,4,12,14-tetrahydro-1H-pyrano[13′,4′:6,7]indolizino[1,2-b]quinolin-4-yl-4-(4-(3-(2,4-dihydroxy-5-isopropylphenyl)-5-hydroxy-4H-1,2,4-triazol-4-yl)phenoxy)piperidine-1-carboxylate hydrochloride]: the IC50 is over 5 µM.

For the compound `CCc1c2c(nc3ccc(O)cc13)-c1cc3c(c(=O)n1C2)COC(=O)[C@@]3(CC)OC(=O)N1CCC(COc2ccc(-n3c(O)nnc3-c3cc(C(C)C)c(O)cc3O)cc2)CC1` [SDC-TRAP-0014, (S)-4,11-diethyl-9-hydroxy-3,14-dioxo-3,4,12,14-tetrahydro-1H-pyrano[3,4:6,7]indolizino[1,2-b]quinolin-4-yl 4-((4-(3-(2,4-dihydroxy-5-isopropylphenyl)-5-hydroxy-4H-1,2,4-triazol-4-yl)phenoxy)methyl)piperidine-1-carboxylate], the IC50 is over 5 µM.

The compound `CCc1c2c(nc3ccc(OC(=O)NCCOCCn4ccc5cc(-n6c(O)nnc6-c6cc(C(C)C)c(O)cc6O)ccc54)cc13)-c1cc3c(c(=O)n1C2)COC(=O)C3(O)CC` (centres unmarked) [SDC-TRAP-0016, 4,11-diethyl-4-hydroxy-3,14-dioxo-3,4,12,14-tetrahydro-1H-pyrano[3′,4′:6,7]indolizino[1,2-b]quinolin-9-yl (2-(2-(5-(3-(2,4-dihydroxy-5-isopropylphenyl)-5-hydroxy-4H-1,2,4-triazol-4-yl)-1H-indol-1-yl)ethoxy)ethyl)carbamate] had an IC50 of over 5 µM.

`CCc1c2c(nc3ccc(O)cc13)-c1cc3c(c(=O)n1C2)COC(=O)C3(CC)OC(=O)CCC(=O)NCCn1ccc2cc(-n3c(O)nnc3-c3cc(C(C)C)c(O)cc3O)ccc21` (centres unmarked) [SDC-TRAP-0026]: half-maximal inhibition (IC50) was put at 1.78 µM.

Compound `CCc1c2c(nc3ccc(O)cc13)-c1cc3c(c(=O)n1C2)COC(=O)C3(CC)OC(=O)N1CCN(C(=O)CCc2ccc(-n3c(O)nnc3-c3cc(C(C)C)c(O)cc3O)cc2)CC1` (centres unmarked) [SDC-TRAP-0060, 4,11-diethyl-9-hydroxy-3,14-dioxo-3,4,12,14-tetrahydro-1H-pyrano[3′,4′:6,7]indolizino[1,2-b]quinolin-4-yl 4-(3-(4-(3-(2,4-dihydroxy-5-isopropylphenyl)-5-hydroxy-4H-1,2,4-triazol-4-yl)phenyl)propanoyl)piperazine-1-carboxylate] returned an IC50 of over 5 µM.
